Data set [1] concerns Staphylococcus aureus Oxford. Kind of data set: MIC by agar-dilution, Staphylococcus aureus Oxford. Format: cell-based. As to conditions: inoculum 10^4 CFU/spot, 37° C., 24 hours. As to the method: (§1) The following results were obtained on a standard in-vitro test system. The activity is described in terms of the minimum inhibitory concentration (MIC) determined by the agar-dilution technique with an inoculum size of 10^4 CFU/spot. Typically, compounds are active in the range 0.01 to 256 μg/ml.
(§2) Staphylococci were tested on agar, using an inoculum of 10^4 CFU/spot and an incubation temperature of 37° C. for 24 hours—standard test conditions for the expression of methicillin resistance.

For data set [2], the system named is Staphylococcus aureus Novb. Res (Novobiocin resistant). Kind of data set: MIC by agar-dilution, Staphylococcus aureus Novb. Res. The format is cell-based. To be noted: inoculum 10^4 CFU/spot, 37° C., 24 hours. As to the method: as §1, §2
The subject of the next data set is Bacillus subtilis. Kind of data set: MIC by agar-dilution, Bacillus subtilis. The format is cell-based. As to conditions: inoculum 10^4 CFU/spot. As to the method: as §1
The test system of data set [3] is Streptococcus pyogenes C203. Kind of data set: MIC by agar-dilution, Streptococcus pyogenes C203. The format is cell-based. As to conditions: agar with 5% defibrinated horse blood, 10^4 CFU/spot, 37° C., 5% carbon dioxide, 48 hours. As to the method: (§3) The following results were obtained on a standard in-vitro test system. The activity is described in terms of the minimum inhibitory concentration (MIC) determined by the agar-dilution technique with an inoculum size of 10^4 CFU/spot. Typically, compounds are active in the range 0.01 to 256 μg/ml. Streptococci and enterococci were tested on agar supplemented with 5% defibrinated horse blood, an inoculum of 10^4 CFU/spot and an incubation temperature of 37° C. in an atmosphere of 5% carbon dioxide for 48 hours—blood is required for the growth of some of the test organisms.

Data set [4] has as its system Coagulase Negative Staphylococci MR (methicillin resistant). Kind of data set: MIC by agar-dilution, Coagulase Negative Staphylococci MR. Format: cell-based. As to conditions: inoculum 10^4 CFU/spot, 37° C., 24 hours. As to the method: as §1, §2
In data set [5] the test system is Coagulase Negative Staphylococci MS (methicillin sensitive). Kind of data set: MIC by agar-dilution, Coagulase Negative Staphylococci MS. Format: cell-based. As to conditions: inoculum 10^4 CFU/spot, 37° C., 24 hours. As to the method:
as §1, §2

For data set [6], the system named is Staphylococcus aureus MRQR (methicillin resistant quinolone resistant). Kind of data set: MIC by agar-dilution, Staphylococcus aureus MRQR. To be noted: inoculum 10^4 CFU/spot, 37° C., 24 hours. Format: cell-based. As to the method:
as §1, §2

The next data set deals with Enterococcus faecalis. Kind of data set: MIC by agar-dilution, Enterococcus faecalis. Format: cell-based. As to conditions: agar with 5% defibrinated horse blood, 10^4 CFU/spot, 37° C., 5% carbon dioxide, 48 hours. As to the method:
as §3

Converted amounts (≈) assume the structure as drawn. Like-named read-outs stand apart in the source and are kept apart here.

As for `O=C1O[C@@H](COc2cnsn2)CN1c1ccc(C2=CCOCC2)c(F)c1` [Example 10, 5(R)-(1,2,5-Thiadiazol-3-yloxymethyl)-3-(3-fluoro-4-(3,6-dihydro-(2H)-pyran-4-yl)phenyl)oxazolidin-2-one], the melting point fell in the range of 46 to 48 °C.

Molecule `O=C1O[C@@H](COc2cnsn2)CN1c1ccc(C2=CCOCC2)c(F)c1` [Example 142, 5(R)-1,2,5-Thiadiazol-3-yloxymethyl-3-(4-[3,6-dihydro-(2H)-pyran-4-yl]-3-fluorophenyl)oxazolidin-2-one] had a melting point of 146 to 148 °C.

For `O=C(C(O)CO)N1CC=C(c2c(F)cc(N3C[C@H](COc4ccon4)OC3=O)cc2F)CC1` (mixture of isomers) [Example 4, 5(R)-Isoxazol-3-yloxymethyl-3-(4-(1-(2(R,S),3-dihydroxypropanoyl)-1,2,5,6-tetrahydropyrid-4-yl)-3,5-difluorophenyl)-oxazolidin-2-one], the MIC in data set [1] (read-out: MIC) came out at 0.25 µg/mL; in data set [2] (read-out: MIC) it was 0.5 µg/mL; in the data set with Bacillus subtilis (read-out: MIC), 0.25 µg/mL; in data set [3] (read-out: MIC), 0.5 µg/mL; in [4] (read-out: MIC), 0.5 µg/mL; in data set [5] (read-out: MIC), 0.13 µg/mL. Besides, the MIC in [6] (read-out: MIC) was 0.5 µg/mL; in the data set with Enterococcus faecalis (read-out: MIC) it was 1 µg/mL.

In the case of `CS(=O)(=O)c1ccc(N2C[C@H](COc3ccon3)OC2=O)cc1` [Example 163, 3-(4-Methylsulfonylphenyl)-5(R)-(isoxazol-3-yloxymethyl)oxazolidin-2-one], the melting point was 180 °C.

In turn, `O=C([C@H](O)CO)N1CC=C(c2ccc(N3C[C@H](COc4ccon4)OC3=O)cc2)CC1` [Example 40, 5(R)-Isoxazol-3-yloxymethyl-3-(4-(1-(2(R),3-dihydroxypropanoyl)-1,2,5,6-tetrahydropyrid-4-yl)phenyl)oxazolidin-2-one] returned a melting point of 138 to 144 °C.

Regarding `O=C([C@@H](O)CO)N1CC=C(c2ccc(N3C[C@H](COc4ccon4)OC3=O)cc2)CC1` [Example 41, 5(R)-Isoxazol-3-yloxymethyl-3-(4-(1-(2(S),3-dihydroxypropanoyl)-1,2,5,6-tetrahydropyrid-4-yl)phenyl)oxazolidin-2-one], the melting point is 200 to 202 °C (dec.).

For the molecule `O=C([C@@H](O)CO)N1CC=C(c2ccc(N3C[C@H](COc4ccon4)OC3=O)cc2F)CC1` [Example 12, 5(R)-Isoxazol-3-yloxymethyl-3-(4-(1-(2(S),3-dihydroxypropanoyl)-1,2,5,6-tetrahydropyrid-4-yl)-3-fluorophenyl)oxazolidin-2-one], the MIC was found to be 0.25 µg/mL (≈ 0.559 µM) in data set [1] (read-out: MIC); 0.5 µg/mL (≈ 1.12 µM) in [2] (read-out: MIC); 0.25 µg/mL (≈ 0.559 µM) with Bacillus subtilis (read-out: MIC); 0.5 µg/mL (≈ 1.12 µM) in data set [3] (read-out: MIC); 0.5 µg/mL (≈ 1.12 µM) in data set [4] (read-out: MIC); 0.13 µg/mL (≈ 0.291 µM) in [5] (read-out: MIC). The MIC in data set [6] (read-out: MIC) is 0.5 µg/mL (≈ 1.12 µM); in the data set with Enterococcus faecalis (read-out: MIC), 1 µg/mL (≈ 2.24 µM).

For `O=C1O[C@@H](COc2cnsn2)CN1c1ccc(N2C[C@@H]3C[C@H]2CN3Cc2ccccc2)c(F)c1` [Example 154, 5(R)-1 ,2,5-Thiadiazol-3-yloxymethyl-3-(4-((1 S)(4S)-2-benzyl-2,5-diazabicyclo{2.2.1}heptan-5-yl)-3-fluorophenyl)oxazolidin-2-one], the melting point was 97 to 98 °C.

`O=C([C@@H](O)CO)N1CC=C(c2c(F)cc(N3C[C@H](COc4ccon4)OC3=O)cc2F)CC1` [Example 18, 5(R)-Isoxazol-3-yloxymethyl-3-(4-(1-(2(S),3-dihydroxypropanoyl)-1,2,5,6-tetrahydropyrid-4-yl)-3,5-difluorophenyl)oxazolidin-2-one]: the MIC in [1] (read-out: MIC) was determined as 0.25 µg/mL (≈ 0.537 µM); in [2] (read-out: MIC), 0.25 µg/mL (≈ 0.537 µM); in the data set with Bacillus subtilis (read-out: MIC), 0.25 µg/mL (≈ 0.537 µM); in [3] (read-out: MIC), 0.25 µg/mL (≈ 0.537 µM); in data set [4] (read-out: MIC) it was 0.5 µg/mL (≈ 1.07 µM); in data set [5] (read-out: MIC) it was 0.13 µg/mL (≈ 0.279 µM). In addition, the MIC (in [6] (read-out: MIC); with Enterococcus faecalis (read-out: MIC)) was 0.5 µg/mL (≈ 1.07 µM) throughout.

Take `O=C(CO)N1CC=C(c2ccc(N3C[C@H](COc4cnsn4)OC3=O)cc2F)CC1` [Example 151, 5(R)-1,2,5-Thiadiazol-3-yloxymethyl-3-(4-(1-hydroxyacetyl-1,2,5,6-tetrahydropyrid-4-yl)-3-fluorophenyl)oxazolidin-2-one]: the MIC in data set [1] was found to be 0.13 µg/mL (≈ 0.299 µM); in data set [2] it was 0.25 µg/mL (≈ 0.575 µM); against Bacillus subtilis it was 0.13 µg/mL (≈ 0.299 µM); in data set [3] it was 0.25 µg/mL (≈ 0.575 µM); in data set [4], 0.25 µg/mL (≈ 0.575 µM); in data set [5] it was 0.13 µg/mL (≈ 0.299 µM). Besides, the MIC (in [6]; against Enterococcus faecalis) was 0.25 µg/mL (≈ 0.575 µM) in each case.

For the origin of these results see patent US20030144263A1, “Oxazolidinone derivatives, process for their preparation and pharmaceutical compositions containing them” (Syngenta Limited, priority 1998, published 2003).
